The test system of one series is STAT3. Put plainly: Western blot of STAT3 phosphorylation in HepG2 cells. The settings on record: Figure 6A. In kind it is cell-based. The procedure:
(§1) In subsequent experiments, we further investigated whether NSAIDs could induce STAT3 activation and suppress the expression of caspase9. […] The phosphorylated STAT3 was determined by western blot analysis. […] For STAT3 phosphorylation and caspase9 expression analysis, HepG2 cells were seeded in 6-well plates and then treated with varied compounds in serum-free DMEM media. After 24 h incubation, cells were washed twice with ice-cold phosphate buffered saline (PBS) and lysed in RIPA buffer including 5 mM NaF, 1 mM PMSF, 2 mM NaVO4 and protease inhibitor cocktail. Lysates were then centrifuged at 10,000 rpm for 10 min at 4°and the protein concentrations were determined by BCA assay. Whole cell extracts was resolved on 10% SDS-PAGE and transferred to polyvinylidene fluoride (PVDF) membrane. The membrane was blotted with antibodies against p-STAT3, total-STAT3, caspase9 and GAPDH, and then examined by ECL detection system according to the manufacturer's instructions (Amersham Pharmacia Biotech).
On the technique in general: Immunoblotting shows a protein as a band on a membrane.

The subject of another series is caspase9. The series can be described thus: Western blot of caspase9 in HepG2 cells. In kind it is cell-based. The settings on record: Figure 6B. The procedure:
as §1

The target in series [1] is T1, Farnesoid X Receptor (FXR) (Homo sapiens, UniProt Q96RI1).
T1 construct: Human FXRα-LBD (amino acids 200–473); expressed in transfected cells; host or cells: yeast strain AH109
T1 sequence (Q96RI1 200-472 isoform Q96RI1-2): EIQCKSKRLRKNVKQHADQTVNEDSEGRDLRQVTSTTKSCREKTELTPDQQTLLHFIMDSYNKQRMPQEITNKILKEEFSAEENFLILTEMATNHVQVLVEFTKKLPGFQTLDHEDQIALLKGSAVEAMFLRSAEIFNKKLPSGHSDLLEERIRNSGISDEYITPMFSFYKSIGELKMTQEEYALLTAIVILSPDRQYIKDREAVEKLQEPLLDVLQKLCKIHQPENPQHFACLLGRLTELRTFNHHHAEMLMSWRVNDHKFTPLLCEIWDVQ
The series can be described thus: Yeast two-hybrid assay, FXR antagonist testing (compounds plus 10 μM CDCA). In kind it is cell-based. Particulars: for IC50: hFXR-LBD/SRC1, determined if inhibition at 10 μM > 50%. From the text:
(§2) Yeast two-hybrid system is a powerful tool for identifying potential agonist or antagonist of nuclear receptor based on the protein-protein interaction between nuclear receptor and its transcriptional co-activator[34]. Based on the predicted results through our systems pharmacology approach, the yeast two-hybrid system was set up according to a previous study[35] to test whether NSAIDs can modulate the activation of FXR. A series of NSAIDs with diverse chemical structures were collected and experimentally evaluated for their effects on the interaction between FXR and its co-activator SRC1. […] The previous studies reported an immune-mediated mechanism that is related to liver toxicity induced by oxicams and coxibs.
(§3) The yeast expression plasmids pGADT7 and pGBKT7 were from Clontech (Palo Alto, CA). Human FXRα-LBD (amino acids 200–473) was subcloned into vector pGBKT-7 using NdeI and BamHI restrict enzyme sites. The primers used for PCR amplification were listed as follows: FXRα-LBD (sense) 5′-[…]-3′, (anti-sense) 5′-[…]-3′. The combination plasmid pGADT7-SRC1 was prepared as described previously. The luciferase reporter plasmid pGL3-FXRE-Luc was generously donated by Dr. Majlis Hermansson (AstraZeneca R&D Mölndal, Sweden).
(§4) A yeast two-hybrid system for FXRα was constructed by yeast co-transformation with pGBKT7-FXR LBD and pGADT7-SRC1 according to manufacturer's protocols. […] 24 h later, we harvested the yeast cells and analyzed α-galactosidase activity using p-nitrophenyl α-D-galactopyranoside as the substrate.

For series [2], the target named is T1, Farnesoid X Receptor (FXR). Put plainly: Yeast two-hybrid assay, hFXR agonist testing (FXR-LBD/SRC1 interaction, α-galactosidase). In kind it is cell-based. Particulars: DMSO = 1.
Text: as §2, §3, §4

A further series relates to SHP. Put plainly: qRT-PCR of FXR target gene SHP in HepG2 cells. A general note: In qPCR the cycle at which signal appears reflects the starting amount.

As a reminder, the inhibition is the relative decrease from the control value, in per cent. Broadly, the IC50 is the point on the concentration scale where inhibition reaches its midpoint.

Protocol for SHP: The mRNA levels of the FXR target genes were quantified by qRT-PCR.
The data were carried out in at least three independent experiments.
HepG2 cells were cultured at 37°C in DMEM media supplemented with 10% FBS. And then cells were seeded into 6-well plates and grew to 80–90% confluence. After incubation with the test compounds for 24 h, cells were harvested and total RNA was isolated using Trizol reagent. The first single-strand cDNA was synthesized using reverse transcriptase kit. The qRT-PCR was performed using Bio-Rad CFX96^TM real time PCR system according to the manufacturer's instruction with specific primers for the FXR target gene SHP (forward 5′-[sequence]-3′, reverse 5′-[sequence]-3′), CYP7A1 (forward 5′- [sequence]-3′, reverse 5′- [sequence]-3′) for detection of the transcripts. Transcription levels were normalized to GAPDH mRNA levels (forward 5′- [sequence]-3′, reverse 5′- [sequence]-3′). The relative RNA quantities were calculated using the comparative threshold cycles (Ct) method. The Ct for the SHP, CYP7A1 and GAPDH signals were determined in triplicate experiments.

On to `C[C@H](CCC(=O)O)[C@H]1CC[C@H]2[C@@H]3[C@H](O)C[C@@H]4C[C@H](O)CC[C@]4(C)[C@H]3CC[C@]12C` [CDCA, chenodeoxycholic acid], for which the “effect on indomethacin-induced STAT3 activation” value in the series on STAT3 (CDCA pretreatment) is listed as “suppresses indomethacin-induced STAT3 activation”. In addition, in the series on caspase9 (co-treated with indomethacin and CDCA), the “caspase9 levels on co-treatment with indomethacin” value is “substantially attenuated back to the normal level”.

`O=C(O)c1cc(-c2ccc(F)cc2F)ccc1O` [Diflunisal]: in series [1], the inhibition at 10 µM was 93.3%. In addition, the IC50 in series [1] (yeast two hybrid) worked out at 8.48 µM. In addition, the “FXR activation (10 μM)” value in series [2] came to 1.31.

Regarding `COc1ccc2c(c1)c(CC(=O)O)c(C)n2C(=O)c1ccc(Cl)cc1` [Indomethacin], the STAT3 phosphorylation level entry in the series with STAT3 (western blot) is listed as “significantly increases the STAT3 phosphorylation level”. Moreover, in the series on caspase9 (western blot), the caspase9 expression entry is given as “significantly stimulates caspase9 expression in a dose-dependent manner”. For the same molecule, the “biological activity on genes SHP and CYP7A1 compared with ibuprofen” value with SHP is listed as “higher biological activity than ibuprofen”.

As for `CCCCC1C(=O)N(c2ccccc2)N(c2ccccc2)C1=O` [Phenylbutazone], the inhibition at 10 µM in series [1] is 91.9%. For the same molecule, in series [1] (yeast two hybrid), the “FXR antagonist potency compared with guggulsterones (GS)” value was “more potent FXR antagonist than guggulsterones” and the half-inhibitory concentration (IC50) is 0.7 µM. In addition, in series [2], the “FXR activation (10 μM)” value stood at 0.99.

As to `CN1C(C(=O)Nc2ccccn2)=C(O)c2ccccc2S1(=O)=O` [Piroxicam], the inhibition at 10 µM in series [1] came out at 30.7%. Further, the 50% inhibitory concentration (IC50) in series [1] (yeast two hybrid) was more than 25 µM. In series [2], the “FXR activation (10 μM)” value came to 1.13.

For the molecule `CS(=O)(=O)c1ccc(C2=C(c3ccccc3)C(=O)OC2)cc1` [Rofecoxib], the inhibition at 10 µM in series [1] is 39.9%. In addition, the half-inhibitory concentration (IC50) in series [1] (yeast two hybrid) is more than 25 µM. Further, the “FXR activation (10 μM)” value in series [2] is on record as 1.18.
